Experimental data taken from US8715681B2, “Minimal motifs of linear B-cell epitopes in L1 protein from human papillomavirus type 58 and their applications” (Hengsun Pharmaceutical Technology Co. Ltd., priority 2012, dated 2014).
Ends that are not written are not given here.

System: rabbit serum raised against r-L1C
Experiment: Epitope mapping of 18-mer peptide-GST188 fusion proteins by Western blotting with anti-r-L1C rabbit serum
Assay type: binding
Details: 18-mer peptides P25-P60 fused with GST188
From the text: 1. The clone of HPV 58 genome was purchased from commercial resource (20). With regular PCR method, the N terminal and C terminal of full-length HPV58-L1 cDNA were amplified from the HPV 58 genome we purchased and then were reconstructed into pRSET-C fusion expression plasmid. The expressed r-L1N^36-233 and r-L1C^226-524 proteins were purified from E. coli, and finally used as antigen to immunize three New Zealand white rabbits to prepare rabbit antisera against r-L1N^36-233 or r-L1C^226-524, respectively.
2. Previously we have constructed a fusion expression plasmid pXXGST-1 specially used for 8/18-mer short peptide biosynthesis in epitope mapping. In this plasmid, the macromolecule protein carrier was a truncated glutathione S-transferases (GST) with 188 residues (GST188) (China Patent NO.: 200710173305.2; 18). DNA recombinant technology was employed to express two sets of 18-mer peptides overlapping each other by 10 residues covering the domains of L1N^36-233 and L1C^226-524 fused with GST188, respectively. Specifically the DNA fragments encoding different short peptide were inserted into pXXGST-1 plasmid after annealing of chemically synthesized plus and minus DNA strands to double-strand DNA. […]

**Q.** How did the “reactivity in Western blotting” value turn out when “P27: biosynthetic 18-mer peptide of HPV58 L1 fused with GST188; contains DVPID (NKSDVPIDICNSTCKYPD; not fully specified (N-terminus); cysteine pairing not given here)” was run?
**A.** reactive
